Assay results published in patent US6737383B1, “Herbicidal oxadiazolidines” (priority 1999, dated 2004).

Experiments:
corn = assay: Test B pre/postemergence corn; assay type: in vivo, Zea mays
Procedure, shortened: (§1)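 Herbicidal effect was estimated by eye on a ten-point control scale after plants spent twelve to sixteen days in a greenhouse following soil or foliar treatment. Foliar sprays targeted plants at one to four leaves; all doses were formulated in a non-phytotoxic solvent with surfactant.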

rape = assay: Test B pre/postemergence rape; assay type: in vivo, Brassica napus
Procedure, shortened: as §1

sugar beet = assay: Test B pre/postemergence sugar beet; assay type: in vivo, Beta vulgaris
Procedure, shortened: as §1

winter wheat [1] = assay: Test E winter wheat; assay type: in vivo, Triticum aestivum; conditions: Postemergence, 0 to 100 scale
Experimental: […] All plant species were grown using normal greenhouse practices. Crop and weed species include annual bluegrass (Poa annua), blackgrass (Alopecurus myosuroides), black nightshade (Solanum nigra), chickweed (Stellaria media), common poppy (Papaver rhoeas), deadnettle (Lamium amplexicaule), downy brome (Bromus tectorum), field violet (Viola arvensis), galium (Galium aparine), green foxtail (Setaria viridis), Italian ryegrass (Lolium multiflorum), jointed goatgrass (Aegilops cylindrica), kochia (Kochia scoparia), lambsquarters (Chenopodium album), littleseed canarygrass (Phalaris minor), rape (Brassica napus), redroot pigweed (Amaranthus retroflexus), Russian thistle (Salsola kali), scentless chamomile (Matricaria inodora), spring barley (Hordeum vulgare), sugar beet (Beta vulgaris), sunflower (Helianthus annuus), ivyleaf speedwell (Veronica hederaefolia), spring wheat (Triticum aestivum), winter wheat (Triticum aestivum), wild buckwheat (Polygonum convolvulus), wild mustard (Sinapis arvensis), wild oat (Avena fatua), windgrass (Apera spica-venti) and winter barley (Hordeum vulgare).
Treated plants and untreated controls were maintained in a greenhouse for approximately 21 to 28 days, after which all treated plants were compared to untreated controls and visually evaluated. […] A dash response (-) means no test result.

blackgrass = assay: Test E blackgrass; assay type: in vivo, Alopecurus myosuroides; conditions: Preemergence; for Blackgrass plant response rating (0 to 100 scale): Rate 250 g/ha; for Plant response rating, Blackgrass: 0 to 100 scale where 0 is no effect and 100 is complete control
green foxtail = assay: Test E green foxtail; assay type: in vivo, Setaria viridis; conditions: Preemergence; for Green foxtail plant response rating (0 to 100 scale): Rate 250 g/ha
Italian ryegrass = assay: Test E Italian ryegrass; assay type: in vivo, Lolium multiflorum; conditions: Preemergence; for I. Ryegrass plant response rating (0 to 100 scale): Rate 250 g/ha; for Plant response rating, I. Ryegrass: 0 to 100 scale where 0 is no effect and 100 is complete control
winter wheat [2] = assay: Test E winter wheat; assay type: in vivo, Triticum aestivum; conditions: Preemergence; for Wheat (winter) plant response rating (0 to 100 scale): Rate 250 g/ha; for Plant response rating, Wheat (winter): 0 to 100 scale where 0 is no effect and 100 is complete control
wild oat = assay: Test E wild oat; assay type: in vivo, Avena fatua; conditions: Preemergence; for Wild oat plant response rating (0 to 100 scale): Rate 250 g/ha; for Plant response rating, Wild oat: 0 to 100 scale where 0 is no effect and 100 is complete control
winter barley = assay: Test E winter barley; assay type: in vivo, Hordeum vulgare; conditions: Preemergence; for Barley (winter) plant response rating (0 to 100 scale): Rate 250 g/ha; for Plant response rating, Barley (winter): 0 to 100 scale where 0 is no effect and 100 is complete control
duck salad = assay: Test B flood test duck salad; assay type: in vivo, Heteranthera limosa
Procedure, shortened: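 Read-out is a visual response score from 0 (no effect) to 10 (complete control), assigned by comparison with untreated controls. Treatment was applied at the 2-leaf stage, and plants stayed in the greenhouse for twelve to sixteen days before scoring.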

[3] = Postemergence, Rate 125 g/ha, scale of 0 to 10 where 0 is no effect and 10 is complete control
[4] = Preemergence, Rate 62 g/ha, scale of 0 to 10 where 0 is no effect and 10 is complete control
[5] = Preemergence, Rate 125 g/ha, 0 is no effect, 10 is complete control
[6] = Preemergence, Rate 250 g/ha, scale 0 to 10, 0 is no effect, 10 is complete control
[7] = Preemergence, Rate 500 g/ha, scale 0 to 10 (0 no effect, 10 complete control)
[8] = Rate 62 g/ha, Postemergence, scale of 0 to 10 where 0 is no effect and 10 is complete control
[9] = Rate 250 g/ha, Postemergence, scale 0 to 10, 0 is no effect, 10 is complete control
[10] = Rate 500 g/ha, Postemergence, scale 0 to 10
[11] = Preemergence, Rate 250 g/ha, scale of 0 to 10 where 0 is no effect and 10 is complete control
[12] = Preemergence, Rate 500 g/ha, scale of 0 to 10 where 0 is no effect and 10 is complete control
[13] = Rate 62 g/ha, Postemergence, scale 0 to 10, 0 no effect, 10 complete control
[14] = Rate 125 g/ha, Postemergence, scale of 0 to 10 where 0 is no effect and 10 is complete control
[15] = Rate 125 g/ha, Preemergence, scale of 0 to 10 where 0 is no effect and 10 is complete control
[16] = Rate 250 g/ha, Postemergence, scale of 0 to 10 where 0 is no effect and 10 is complete control

CC(C)N(C(=O)n1oc(=O)n([C@@H](C)c2ccccc2)c1=O)c1ccccc1 [Compound 173]
98: Plant response rating, Blackgrass (blackgrass; Rate 1000 g/ha) | Plant response rating, I. Ryegrass (Italian ryegrass; Rate 1000 g/ha)
30: Plant response rating, Wheat (winter) (winter wheat [2]; Rate 500 g/ha) | Barley (winter) plant response rating (0 to 100 scale) (winter barley)
20: Wheat (winter) plant response rating (0 to 100 scale) (winter wheat [2])
0: Corn plant response rating (corn; [3]) | Corn plant response rating (corn; [4]) | Corn plant response rating (0 to 10 scale) (corn; [5]) | Corn plant response rating (corn; [6]) | Corn plant response rating (corn; [7]) | Corn plant response rating (corn; [8]) | Plant response rating, Corn (corn; [9]) | Corn plant response rating (corn; [10]) | Rape plant response rating (rape; [3]) | Rape plant response rating (rape; [4]) | Rape plant response rating (0 to 10 scale) (rape; [5]) | Rape plant response rating (rape; [6]) | Rape plant response rating (rape; [7]) | Rape plant response rating (rape; [8]) | Plant response rating, Rape (rape; [9]) | Rape plant response rating (rape; [10]) | Sugarbeets plant response rating (sugar beet; [3]) | Sugarbeets plant response rating (sugar beet; [4]) | Sugarbeets plant response rating (sugar beet; [8]) | Plant response rating, Sugarbeets (sugar beet; [9])
70: Plant response rating, Blackgrass (blackgrass; Rate 500 g/ha)
2: Sugarbeets plant response rating (0 to 10 scale) (sugar beet; [5])
35: I. Ryegrass plant response rating (0 to 100 scale) (Italian ryegrass)
50: Blackgrass plant response rating (0 to 100 scale) (blackgrass) | Plant response rating, Wheat (winter) (winter wheat [2]; Rate 1000 g/ha) | Wild oat plant response rating (0 to 100 scale) (wild oat) | Plant response rating, Wild oat (wild oat; Rate 1000 g/ha)
85: Green foxtail plant response rating (0 to 100 scale) (green foxtail)
3: Sugarbeets plant response rating (sugar beet; [6])
45: Plant response rating, I. Ryegrass (Italian ryegrass; Rate 500 g/ha) | Plant response rating, Wild oat (wild oat; Rate 500 g/ha)
6: Sugarbeets plant response rating (sugar beet; [7])
5: Sugarbeets plant response rating (sugar beet; [10])
40: Plant response rating, Wheat (winter) (winter wheat [1]; Rate 500 g/ha, 0 is no effect, 100 is complete control) | Plant response rating, Barley (winter) (winter barley; Rate 500 g/ha) | Plant response rating, Barley (winter) (winter barley; Rate 1000 g/ha)
60: Plant response rating, Wheat (winter) (winter wheat [1]; Rate 1000 g/ha, 0 is no effect and 100 is complete control)
100: Plant response rating, Green foxtail (green foxtail; Rate 1000 g/ha, 0 to 100 scale where 0 is no effect and 100 is complete control)

CCC=CCn1c(=O)on(C(=O)N(c2ccc(F)cc2)C(C)C)c1=O [Compound 286]
2: Rape plant response rating (rape; [14]) | Sugarbeets plant response rating (sugar beet; [14]) | Plant response rating, Sugarbeets (sugar beet; [16])
0: Corn plant response rating (corn; [4]) | Corn plant response rating (corn; [11]) | Plant response rating, Corn (corn; [12]) | Corn plant response rating (corn; [13]) | Corn plant response rating (corn; [14]) | Corn plant response rating (corn; [15]) | Plant response rating, Corn (corn; [16]) | Corn plant response rating (corn; Rate 500 g/ha, Postemergence, scale 0 to 10, 0 no effect, 10 complete control) | Rape plant response rating (rape; [4]) | Rape plant response rating (rape; [13]) | Rape plant response rating (rape; [15]) | Sugarbeets plant response rating (sugar beet; [4]) | Sugarbeets plant response rating (sugar beet; [11]) | Sugarbeets plant response rating (sugar beet; [13]) | Sugarbeets plant response rating (sugar beet; [15]) | Ducksalad plant response rating (duck salad; Rate 62 g/ha, headed Pre-emergence (flood test species), scale 0 to 10 (0 no effect, 10 complete control)) | Ducksalad plant response rating (duck salad; Rate 125 g/ha, Pre-emergence, flood test species, scale 0 to 10 where 0 is no effect and 10 is complete control) | Ducksalad plant response rating (duck salad; Rate 250 g/ha, Pre-emergence, flood-test species, scale 0 to 10, 0 is no effect, 10 is complete control) | Ducksalad plant response rating (duck salad; Rate 500 g/ha, Pre-emergence, flood test species, scale 0 to 10 (0 no effect, 10 complete control))
55: Green foxtail plant response rating (0 to 100 scale) (green foxtail)
5: Plant response rating, Rape (rape; [16]) | Barley (winter) plant response rating (0 to 100 scale) (winter barley)
10: Blackgrass plant response rating (0 to 100 scale) (blackgrass) | Wild oat plant response rating (0 to 100 scale) (wild oat)
7: Plant response rating, Rape (rape; [12])
3: Rape plant response rating (rape; [11])
40: I. Ryegrass plant response rating (0 to 100 scale) (Italian ryegrass) | Wheat (winter) plant response rating (0 to 100 scale) (winter wheat [2])
4: Plant response rating, Sugarbeets (sugar beet; [12])
